Assay results: article PMC3510187, “1-Anilino-8-Naphthalene Sulfonate (ANS) Is Not a Desirable Probe for Determining the Molten Globule State of Chymopapain” (PLoS ONE, 2012)

Target: T1, chymopapain (Carica papaya, UniProt P14080)
T1 construct: native mature enzyme from papaya latex, commercial (Sigma C8526), dialysed; monomer; acid-unfolded states in the assay
Assay: isothermal titration calorimetry (two sets of independent sites)
Conditions: read-out: High affinity binding site / K1 (M^-1)
From the text: isothermal titration calorimetry (two sets of independent sites) on chymopapain

T1 sequence (P14080 135-352): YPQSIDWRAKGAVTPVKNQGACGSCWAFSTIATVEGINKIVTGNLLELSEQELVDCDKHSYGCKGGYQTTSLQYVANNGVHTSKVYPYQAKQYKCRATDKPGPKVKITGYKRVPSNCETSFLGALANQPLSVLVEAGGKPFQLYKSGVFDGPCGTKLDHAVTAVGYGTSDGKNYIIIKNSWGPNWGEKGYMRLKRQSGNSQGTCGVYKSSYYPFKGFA

O=S(=O)(O)c1cccc2cccc(Nc3ccccc3)c12 [1-anilino-8-naphthalene sulfonate]
Kd: 2.94 µM
